From US20160346219A1, “PHOSPHOLIPID-COATED THERAPEUTIC AGENT NANOPARTICLES AND RELATED METHODS” (Autotelic LLC, priority 2015, published 2016)

Assay: Screening of lyoprotectants for stabilization of nanoparticles on lyophilization (particle size before lyophilization and after reconstitution)
Assay type: physicochemical
Settings: single lyoprotectant, amounts 5-20% (FIG. 15)
From the text: FIG. 15 compares particle size as a function of lyoprotectant and lyoprotectant amount for representative phospholipid-coated therapeutic agent (paclitaxel) nanoparticles of the invention, PC-coated paclitaxel nanoparticle manufactured by thin film-hydration method (LM-101), before lyophilization and after reconstitution.

## OC[C@H]1O[C@H](O[C@H]2O[C@H](CO)[C@@H](O)[C@H](O)[C@H]2O)[C@H](O)[C@@H](O)[C@@H]1O [Trehalose]
  stabilization of particles on lyophilization (lyoprotectant): best in stabilizing the particles on lyophilization
